In US20240261242A1, “METHODS OF INTRAVENOUSLY ADMINISTERING SOTALOL” (AltaThera Pharmaceuticals LLC, priority 2018, published 2024):

What was measured:
[1] = example IV sotalol treatment protocols with QTc interval monitoring; type: in vivo, human
Experimental: An example sotalol treatment protocol for a patient experiencing AF and who is currently in normal sinus rhythm (which patient could have resumed normal sinus rhythm spontaneously, or by way of chemical cardioversion, or electrocardioversion) is described herein. The patient is admitted to a hospital or other facility capable of providing cardiac resuscitation and continuous electrocardiographic monitoring. The patient's creatinine clearance is determined to be 60-89 mL/min (mild renal impairment). The patient is connected to an electrocardiographic and an initial QTc is determined to be less than 450 ms. If the patient were to be administered multiple sequential oral doses, the physician would have selected an oral sotalol dosing regimen of 80 mg at a 12-hour interval. However, due to the patient's NPO status, the physician determines the patient should instead be administered an IV sotalol dosing regimen as a substitute for the selected oral dosing regimen. IV doses in an amount of 75 mg sotalol hydrochloride are administered to the patient at 12-hour interval as a substitute for oral dosing. It is noted that notwithstanding the patient's mild kidney impairment, no adjustment to the IV dosing amount or interval is made. That is, even though the patient's CrCl is lower than normal, neither the dose is adjusted lower nor the dosing interval increased to accommodate for the mild renal impairment. The 75 mg IV dose is administered to the patient over a period of 5 hours. The patient's QTc interval is measured, along with heart rate and blood pressure at selected times to ensure that the patient is tolerating the drug. […] Once it is determined that the patient/subject is capable of tolerating the sotalol, one or more subsequent doses of sotalol hydrochloride in an amount of 75 mg is administered to the subject at a 12-hour interval. The patient's QTc interval can continue to be monitored.
An example sotalol treatment protocol for a patient experiencing VT who is not currently in normal sinus rhythm is described herein. The patient is admitted to a hospital or other facility capable of providing cardiac resuscitation and continuous electrocardiographic monitoring. The patient's creatinine clearance is determined to be 10-29 mL/min (severe renal impairment). The patient is connected to an electrocardiographic and an initial QTc is determined to be less than 450 ms. If the patient were to be administered multiple sequential oral doses, the physician would have selected an oral sotalol dosing regimen of 120 mg at a 48-hour interval. However, the physician determines the patient should instead be administered an IV sotalol dosing regimen as a substitute for the selected oral dosing regimen. IV doses in an amount of 105 mg sotalol hydrochloride are administered to the patient at 48-hour interval as a substitute for oral dosing. The 105 mg IV dose is administered to the patient over a period of 5 hours. The patient's QTc interval is measured, along with heart rate and blood pressure at selected times to ensure that the patient is tolerating the drug. […] Once it is determined that the patient/subject is capable of tolerating the sotalol, one or more subsequent doses of sotalol hydrochloride in an amount of 105 mg is administered to the subject at a 48-hour interval. The patient's QTc interval can continue to be monitored.
An example sotalol treatment protocol for a patient with atrial flutter (AFL) and persistent atrial fibrillation who is not currently in normal sinus rhythm is described herein. The patient is admitted to a hospital or other facility capable of providing cardiac resuscitation and continuous electrocardiographic monitoring. The patient's creatinine clearance is determined to be ≥90 mL/min. The patient is connected to an electrocardiographic and an initial QTc is determined to be less than 450 ms. […]

[2] = cited from earlier work
[3] = cited from earlier work; remark: listed apart in the source
[4] = Example 2: 75 mg IV over 5 hours at 12-hour interval, CrCl 60-89 mL/min, AF patient in sinus rhythm
[5] = Example 5: 105 mg IV over 5 hours at 48-hour interval, CrCl 10-29 mL/min, VT patient
[6] = Example 6: 150 mg IV over 5 hours at 12-hour interval, CrCl ≥90 mL/min, AFL and persistent AF patient
[7] = Example 7: 112.5 mg IV over 5 hours at 12-hour interval, then escalated to 150 mg, CrCl 60-89 mL/min, PVC patient

## CC(C)NCC(O)c1ccc(NS(C)(=O)=O)cc1.Cl (centres unmarked) [sotalol hydrochloride, d,1-N-[4-[1-hydroxy-2-[(1-methylethyl)amino]ethyl]phenyl] methane-sulfonamide monohydrochloride]
[1]; [4]
  QTc interval: ≤ 500 ms
  ΔQTc: less than 20%
[1]; [5]
  QTc interval: ≤ 500 ms
  ΔQTc: less than 20%
[1]; [6]
  QTc interval: ≤ 500 ms
  ΔQTc: less than 20%
[1]; [7]
  QTc interval: ≤ 500 ms
  ΔQTc: less than 20%
[2]; oral administration, twice daily (after 5-6 doses)
  time to steady-state plasma levels and maximum QTc prolongation: 3 days
[2]; oral, taken on an empty stomach
  bioavailable: ~100%
[3]
  solubility: soluble in water, propylene glycol, and ethanol
